# In patent publication US12263175B2, “Optimised dosage of diaminophenothiazines in populations” (WisTa Laboratories Ltd., priority 2018, dated 2025):
# Where “and” joins values, the source holds several entries; their conditions need not be identical. Equal entries are not always repeated. Where two headings read alike, the source gives them in different places.
# Tests used:
# [1] = Population PK model estimate of steady-state parent MT Cmax in AD patients (Studies 005 and 015); type: in vivo, human; conditions: for Cmax: human, plasma, oral
# From the text: This, the PK model was then further developed and simplified to a two compartment model fit to the parent MT concentrations only. This model has a fixed Vc, but the dose-dependent Ka is removed.
# This model was derived from Study 036 discussed above. The disposition of parent MT post PO administration of LMTM was adequately described by a two-compartment model with and a delayed absorption occurring through two transit compartments. Apparent oral clearance (CL/F) of parent MT was related to renal function such that a small portion of the variability in parent CL is described by normalized creatinine clearance (CLCRN).
# The population PK model was then used to estimate Cmax of parent MT in the patients who received 4 mg or high dose (c. 200 mg/day) in these Phase 3 AD studies. This Bayesian process involved fixing the population mean and inter-individual variability parameters to the estimates from the fit of the population PK model to the steady-state data from Study 036 and allowing the program to select a set of parameters, given those Bayesian priors, which best predicts the parent MT concentrations from Day 1 in each individual.
# (§1) That threshold was <0.373 ng/mL.
# Higher doses were grouped according to dose (N=187-329 per group).
# Since only 65% of patients receiving the 8 mg/day have plasma concentrations above the threshold required for significant treatment benefit, it is desirable to determine the minimum dose at which 100% patients would be expected to have plasma levels within the therapeutic range.
# AD patients = assay: Phase 3 AD studies 005 and 015: clinical and MRI volumetric endpoints by Cmax,ss group; type: in vivo, human; conditions: for EC50: Homo sapiens, 10920 h, ADAS-cog over 65 weeks, read-out: Cmax,ss concentration required for half-maximal treatment response
# Method: The trial design for the Phase 3 AD studies “005” and “015” are described in Examples 4 and 3 respectively of WO2018/019823, which Examples also discuss those results. The disclosure of those Examples is specifically incorporated herein by reference. Briefly, those Phase 3 trials compared high doses of LMTM (150-250 mg/day) with a low dose (8 mg/day) intended as a mask for potential urine discolouration (Gauthier 2016; Wilcock 2018).
# The results are shown in FIGS. 3a and 3b which show the same data. Patients using symptomatic treatments are labelled “Achmem”.
# as §1
# A further analysis of ADAS-cog decline over 65 weeks was undertaken using a modified form of the Hill equation (Wagner, 1968) in order to estimate the minimum and maximum plasma concentrations for expected treatment response over 65 weeks. […] In addition, a linear term was added to permit trends occurring at high concentrations to be included in the model using data for doses in the range 150-250 mg/day. The expanded Hill equation was applied to the data in the form: change in parameter=Emin−(Emax*([C]−0.29))/(EC50+([C]−0.29))+(A*([C]−0.29)) where Emin is the imposed zero value, Emax is the maximum treatment effect assumed in the standard Hill equation, EC50 is the Cmax,ss at which the treatment effect is 50% of the maximum assumed in the standard Hill equation and A is a further linear term estimated by the model to take account of a potential biphasic response. […] The dose range in which the treatment response is estimated to be maximal is 20-60 mg/day.
# [2] = tested on: tau transgenic mouse model; assay: Tau transgenic mouse model, spatial learning memory after pre-treatment with symptomatic drugs; type: in vivo
# From the text: As is evident from the foregoing, there is a reduction in the maximum effect of LMTM when it is combined with symptomatic treatments. It should be noted however, that this relates to a context in which patients have received LMTM against a background of chronic pre-treatment with symptomatic drugs. The mechanism of this has been elucidated in a series of experiments in a well characterised tau transgenic mouse model.
# [3] = A. All patients split by Cmax,ss 0.373 ng/mL, over 65 weeks
# [4] = B. Patients receiving LMTM, 8 mg/day, over 65 weeks
# [5] = LMTM, 8 mg/day, as add-on therapy (AChEI and/or memantine), over 65 weeks
# [6] = LMTM, 8 mg/day, as monotherapy, over 65 weeks
# [7] = LMTM, 8 mg/day, threshold 0.373 ng/ml, over 65 weeks
smiles,measurement,setting,value
"CN(C)c1ccc2c(c1)Sc1cc(N(C)C)ccc1N2 [LMTM, leuco-methylthioninium bis(hydromethanesulfonate)]",Proportion of subjects above Cmax threshold,[1]; 4 mg bid,50%
same,"Critical therapeutic threshold for Cave,ss",[1]; AD patients,0.223 ng/mL
same,"Critical therapeutic threshold for Cmax,ss",[1]; AD patients,0.393 ng/mL
same,Patients with plasma concentrations above the threshold required for significant treatment benefit,[1]; AD patients receiving 8 mg/day,65%
same,"Plasma-modelled parent MT Cmax,ss Mean (SD)","[1]; AD, studies TRx-237-015 and TRx-237-005, 8 mg/day - Group 2",0.393 (0.0125) ng/mL
same,Dose for 100% of patients to have plasma levels in the therapeutic range,"[1]; AD, QD or BID, either Cmax,ss or Cave,ss criterion",at least 16 mg/day
same,Proportion of subjects achieving Cmax above the median-derived threshold value,"[1]; dosing above 20 mg MT (e.g. as LMTM), depends on number of split doses",90 to 100%
same,Cmax,"[1]; 8 mg/day, AD patients receiving LMTM 8 mg/day, read-out: Cmax,ss threshold, upper limit of the lowest 35% of patients",< 0.373 ng/mL
same,Cmax,"[1]; 8 mg/day, AD, studies TRx-237-015 and TRx-237-005, 8 mg/day - Group 1, read-out: Plasma-modelled parent MT Cmax,ss Range",0.257 to 0.373 ng/mL
same,Cmax,"[1]; 8 mg/day, AD, studies TRx-237-015 and TRx-237-005, 8 mg/day - Group 2, read-out: Plasma-modelled parent MT Cmax,ss Range",0.373 to 0.414 ng/mL
same,Cmax,"[1]; 8 mg/day, AD, studies TRx-237-015 and TRx-237-005, 8 mg/day - Group 3, read-out: Plasma-modelled parent MT Cmax,ss Range",0.415 to 0.478 ng/mL
same,Cmax,"[1]; 8 mg/day, AD, studies TRx-237-015 and TRx-237-005, 8 mg/day - Group 4, read-out: Plasma-modelled parent MT Cmax,ss Range",0.479 to 0.812 ng/mL
same,Cmax,"[1]; 150 mg/day, AD, studies TRx-237-015 and TRx-237-005, 150 mg/day, read-out: Plasma-modelled parent MT Cmax,ss Range",5.1 to 18.6 ng/mL
same,Cmax,"[1]; 200 mg/day, AD, studies TRx-237-015 and TRx-237-005, 200 mg/day, read-out: Plasma-modelled parent MT Cmax,ss Range",6.56 to 21.3 ng/mL
same,Cmax,"[1]; 250 mg/day, AD, studies TRx-237-015 and TRx-237-005, 250 mg/day, read-out: Plasma-modelled parent MT Cmax,ss Range",8.83 to 21.2 ng/mL
same,Estimated proportion of subjects above Cmax threshold,[1]; ˜20 mg/day (10 mg bid),~100%
same,Predicted treatment effect relative to placebo,"AD patients; 4 mg bid, over 65 weeks",~5 ADAS-cog units
same,"ADAS-cog Difference ± SEM, Cmax,ss above vs below 0.373 ng/mL",AD patients; [3],−2.99 ± 0.67 ADAS-cog units
same,"ADCS-ADL Difference ± SEM, Cmax,ss above vs below 0.373 ng/mL",AD patients; [3],0.54 ± 0.94
same,"LVV Difference ± SEM, Cmax,ss above vs below 0.373 ng/mL",AD patients; [3],−1.52 ± 0.34 cm^3
same,"WBV Difference ± SEM, Cmax,ss above vs below 0.373 ng/mL",AD patients; [3],3.55 ± 1.06 cm^3
same,"ADCS-ADL Difference ± SEM, Cmax,ss above vs below 0.373 ng/mL",AD patients; [4],1.22 ± 1.01
same,"LVV Difference ± SEM, Cmax,ss above vs below 0.373 ng/mL",AD patients; [4],−1.78 ± 0.38 cm^3
same,"WBV Difference ± SEM, Cmax,ss above vs below 0.373 ng/mL",AD patients; [4],4.39 ± 1.18 cm^3
same,EC50,AD patients; LMTM combined with symptomatic treatments,0.4 ± 0.05 ng/mL
same,EC50,AD patients; LMTM monotherapy,0.32 ± 0.01 ng/mL
same,"ADAS-cog11 Difference ± SEM, Cmax,ss above vs below 0.373 ng/mL",AD patients; [5],−3.52 ± 0.78
same,"ADCS-ADL23 Difference ± SEM, Cmax,ss above vs below 0.373 ng/mL",AD patients; [5],1.32 ± 1.04
same,"LVV Difference ± SEM, Cmax,ss above vs below 0.373 ng/mL",AD patients; [5],−1.35 ± 0.37 cm^3
same,"WBV Difference ± SEM, Cmax,ss above vs below 0.373 ng/mL",AD patients; [5],4.69 ± 1.21 cm^3
same,"ADAS-cog11 Difference ± SEM, Cmax,ss above vs below 0.373 ng/mL",AD patients; [6],−2.60 ± 1.16
same,"ADCS-ADL23 Difference ± SEM, Cmax,ss above vs below 0.373 ng/mL",AD patients; [6],0.46 ± 1.47
same,"LVV Difference ± SEM, Cmax,ss above vs below 0.373 ng/mL",AD patients; [6],−1.46 ± 0.45 cm^3
same,"WBV Difference ± SEM, Cmax,ss above vs below 0.373 ng/mL",AD patients; [6],2.76 ± 1.66 cm^3
same,"ADAS-cog11 Difference ± SEM, low Cmax add-on vs high Cmax monotherapy",AD patients; [7],−7.53 ADAS-cog11 units and −7.53 ± 1.22 ADAS-cog11 units
same,"ADCS-ADL23 Difference ± SEM, low Cmax add-on vs high Cmax monotherapy",AD patients; [7],6.14 ± 1.64
same,"LVV Difference ± SEM, low Cmax add-on vs high Cmax monotherapy",AD patients; [7],−3.15 ± 0.62 cm^3
same,"WBV Difference ± SEM, low Cmax add-on vs high Cmax monotherapy",AD patients; [7],11.54 ± 1.87 cm^3
same,Dose range in which the treatment response is estimated to be maximal,"AD patients; expanded Hill equation, ADAS-cog decline over 65 weeks",20 to 60 mg/day
same,"Reduction of estimated maximum treatment effect when combined with symptomatic treatments, compared with monotherapy","AD patients; expanded Hill equation, over 65 weeks",about 4 ADAS-cog units
same,Temporal lobe FDG-PET decline,AD patients; high dose LMTM (pooled 200 mg/day),attenuated benefit otherwise seen for LMTM monotherapy
same,"Mean difference between monotherapy and add-on, ADAS-cog change","AD patients; pooled 8 mg/day (4 mg bid), Studies 005 and 015, over 65 weeks",~4 ADAS-cog units
same,Effect on spatial learning memory,[2]; chronic pre-treatment with rivastigmine,elimination of the beneficial effect
same,Effect on spatial learning memory,[2]; pre-treatment with memantine,eliminated the effect
